Among the test systems are A549; CCRF-CEM; DU-145; EKVX; HCT-116; HCT-15; HL-60; HT-29; IGROV-1; K562; MDA-MB-231; NCI/ADR-RES; PC-3; RPMI-8226; SF-295; SK-MEL-2; SNB-19; SNB-75; U-251; Malme-3M.
Common to all, as to assay: inhibition of tumour cell growth, NCI panel, 48 h

This is an account of results in ChEMBL document CHEMBL1201862, “PubChem BioAssay data set” (2004).

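Compound exposure: 48 hours, 5 concentrations, 96-well plates. GI50: concentration for 50% inhibition of growth.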 The source made the active and inactive calls. No stated cut-off is given here; in the data, active = GI50 up to about 1.1 µM and inactive = higher. A value given as a limit tells only on which side of the number the result lay.

As to `CCCN(C(=O)c1c(Cl)nnc(Cl)c1C(=O)c1cc(Cl)nnc1Cl)c1cc(Cl)nnc1Cl`, the GI50 in the experiment with A549 was 32.1 µM (inactive); in the experiment with CCRF-CEM, 2.92 µM (inactive); with DU-145 it was 7.91 µM (inactive); in the experiment on EKVX it was 12.7 µM (inactive); with HCT-116 it was 6.87 µM (inactive); in the experiment with HCT-15, 4.65 µM. Also, the GI50 in the experiment on HL-60 is 2.48 µM (inactive); with HT-29 it was 16.7 µM (inactive); in the experiment on IGROV-1, 7.52 µM (inactive); in the experiment with K562, 4.19 µM (inactive); in the experiment with MDA-MB-231, 15.7 µM (inactive); in the experiment with NCI/ADR-RES, 6.7 µM (inactive). The GI50 with PC-3 was 6.61 µM (inactive); in the experiment with RPMI-8226, 3.65 µM (inactive); with SF-295 it was 19.9 µM (inactive); in the experiment with SK-MEL-2, 14.4 µM (inactive); in the experiment on SNB-19 it was 27.8 µM (inactive); with SNB-75 it was 15.3 µM (inactive). The GI50 in the experiment with U-251 is 16.2 µM (inactive).

Take `COc1ccc(OC)c2c1-c1nnnn1CCC2(C)C`: the GI50 with CCRF-CEM was > 100 µM (inactive); with DU-145, > 100 µM (inactive); in the experiment on EKVX, > 100 µM (inactive); with HCT-116, > 100 µM (inactive); in the experiment with HCT-15 it was above 100 µM; in the experiment on HL-60 it was > 100 µM (inactive). Moreover, the GI50 with HT-29, in the experiment with IGROV-1, with K562, in the experiment with MDA-MB-231, in the experiment with Malme-3M and in the experiment on NCI/ADR-RES was > 100 µM (inactive) throughout. The GI50 in the experiment on PC-3, in the experiment on RPMI-8226, with SF-295, in the experiment on SK-MEL-2, in the experiment with SNB-19 and in the experiment on SNB-75 was > 100 µM (inactive) each time. Besides, in the experiment on U-251, the GI50 was > 100 µM (inactive).

As to `CCCCCCSCC/C(C)=N\OC`, the GI50 in the experiment with A549 is > 100 µM (inactive); in the experiment with CCRF-CEM it was > 100 µM (inactive); with DU-145, > 100 µM (inactive); with EKVX, > 100 µM (inactive); in the experiment on HCT-116, > 100 µM (inactive); in the experiment on HCT-15 it was above 100 µM. Also, the GI50 in the experiment on HL-60 was 45.3 µM (inactive); in the experiment with HT-29, > 100 µM (inactive); with IGROV-1 it was > 100 µM (inactive); in the experiment on K562, > 100 µM (inactive); in the experiment with MDA-MB-231, > 100 µM (inactive); in the experiment on Malme-3M, > 100 µM (inactive). For the same compound, the GI50 in the experiment with NCI/ADR-RES, in the experiment on PC-3, in the experiment with RPMI-8226, with SF-295, in the experiment with SK-MEL-2 and in the experiment with SNB-19 was > 100 µM (inactive) throughout. The GI50 in the experiment with SNB-75 and in the experiment on U-251 was > 100 µM (inactive) in each case.

For `O=C(NC1(C(=O)O)CC1c1ccccc1)c1ccccc1` (stereo not drawn), the GI50 in the experiment with A549 was > 100 µM (inactive); in the experiment on DU-145 it was > 100 µM (inactive); with EKVX, > 100 µM (inactive); in the experiment on HCT-116, > 100 µM (inactive); in the experiment with HCT-15, above 100 µM; in the experiment on HL-60 it was > 100 µM (inactive). In addition, the GI50 with HT-29, with IGROV-1, with K562, in the experiment with MDA-MB-231, in the experiment with Malme-3M and with NCI/ADR-RES was > 100 µM (inactive) in each case. Besides, the GI50 in the experiment with PC-3, in the experiment on RPMI-8226, with SF-295, with SK-MEL-2, in the experiment on SNB-19 and in the experiment on SNB-75 was > 100 µM (inactive) each time. In addition, the GI50 in the experiment with U-251 is > 100 µM (inactive).

In the case of `Cc1ccc(/N=C2/C(c3ccccc3)=C(SC3=C(c4ccccc4)/C(=N/c4ccc(C)cc4)c4ccccc43)c3ccccc32)cc1`, the GI50 in the experiment on A549 is 32.9 µM (inactive); with CCRF-CEM it was > 100 µM (inactive); in the experiment on DU-145 it was 32.1 µM (inactive); in the experiment on EKVX, 19.1 µM (inactive); in the experiment with HCT-116, 20.9 µM (inactive); in the experiment on HCT-15 it was 17.7 µM. In addition, the GI50 is 7.87 µM (inactive) in the experiment with HL-60; 24.6 µM (inactive) in the experiment with HT-29; 17.1 µM (inactive) in the experiment with IGROV-1; 32.4 µM (inactive) with K562; 12.6 µM (inactive) in the experiment on MDA-MB-231; 22.1 µM (inactive) in the experiment on NCI/ADR-RES. For the same compound, the GI50 is 55 µM (inactive) with PC-3; 84.7 µM (inactive) in the experiment with RPMI-8226; 12.5 µM (inactive) with SF-295; > 39.1 µM (inactive) in the experiment with SK-MEL-2; 6.31 µM (inactive) with SNB-19; 8.63 µM (inactive) in the experiment on SNB-75. For the same compound, in the experiment with U-251, the GI50 was 15.7 µM (inactive).

For the compound `CCOP(=O)(OCC)/C(C#N)=C/c1ccc(-c2ccc(F)cc2F)o1`, the GI50 in the experiment on A549 was 15.3 µM (inactive); with CCRF-CEM, 14.6 µM (inactive); in the experiment with DU-145 it was 27.2 µM (inactive); in the experiment on EKVX, 16.3 µM (inactive); in the experiment on HCT-116, 17.4 µM (inactive); with HCT-15, 13.5 µM. The GI50 is 12.3 µM (inactive) in the experiment on HL-60; 16.5 µM (inactive) with HT-29; 13.9 µM (inactive) in the experiment with IGROV-1; 12.2 µM (inactive) with K562; 16.7 µM (inactive) in the experiment on MDA-MB-231; 18.4 µM (inactive) with Malme-3M. The GI50 in the experiment on NCI/ADR-RES is 22.1 µM (inactive); with PC-3, 10.8 µM (inactive); with RPMI-8226 it was 18.4 µM (inactive); in the experiment on SF-295, 16.4 µM (inactive); in the experiment with SK-MEL-2, 23.5 µM (inactive); in the experiment on SNB-19, 16.9 µM (inactive). Besides, the GI50 in the experiment with SNB-75 is 18.5 µM (inactive); with U-251 it was 14.8 µM (inactive).

Turning to `CC(=O)Oc1c(-c2ccccc2)sc2ccccc12`, the GI50 is 20.6 µM (inactive) in the experiment on A549; 18 µM (inactive) in the experiment on CCRF-CEM; 14.1 µM (inactive) in the experiment with DU-145; 22.3 µM (inactive) in the experiment with EKVX; 13.4 µM (inactive) in the experiment on HCT-116; 16.6 µM with HCT-15. Further, the GI50 was 18 µM (inactive) with HL-60; 20.3 µM (inactive) in the experiment with HT-29; 15.3 µM (inactive) with IGROV-1; 13.9 µM (inactive) in the experiment with K562; 14 µM (inactive) in the experiment on MDA-MB-231; 18.2 µM (inactive) in the experiment on Malme-3M. Also, the GI50 with NCI/ADR-RES is 18.2 µM (inactive); in the experiment on PC-3, 25.5 µM (inactive); in the experiment on RPMI-8226, 1.61 µM (inactive); in the experiment with SF-295 it was 18.6 µM (inactive); in the experiment on SK-MEL-2, 13.3 µM (inactive); in the experiment on SNB-19 it was 34.4 µM (inactive). Further, the GI50 is 15.8 µM (inactive) with SNB-75 and 18 µM (inactive) in the experiment with U-251.

In the case of `C[C@]12CCC(=O)C=C1CC[C@@H]1[C@@H]2CC[C@]2(C)C(=O)/C(=C/c3ccncc3)C[C@@H]12`, the GI50 is 16.4 µM (inactive) in the experiment with A549; 14.7 µM (inactive) in the experiment with CCRF-CEM; 14.5 µM (inactive) in the experiment with DU-145; 14.6 µM (inactive) in the experiment with EKVX; 10.6 µM (inactive) in the experiment on HCT-116; 15.3 µM in the experiment with HCT-15. Also, the GI50 in the experiment on HL-60 was 8.51 µM (inactive); in the experiment on HT-29, 10.2 µM (inactive); in the experiment on IGROV-1, 21.2 µM (inactive); with K562, 11.7 µM (inactive); in the experiment on MDA-MB-231, 15.2 µM (inactive); with Malme-3M it was 15.7 µM (inactive). In addition, the GI50 in the experiment with NCI/ADR-RES is 26.2 µM (inactive); with PC-3, 12.4 µM (inactive); in the experiment on RPMI-8226, 8.99 µM (inactive); in the experiment on SF-295 it was 15.3 µM (inactive); with SK-MEL-2 it was 14.5 µM (inactive); in the experiment on SNB-19, 13.2 µM (inactive). Besides, the GI50 in the experiment on SNB-75 is 19.6 µM (inactive); in the experiment on U-251 it was 12.4 µM (inactive).

`Cc1cc(O)c2c(c1)C(C1OC(CO)C(O)C(O)C1O)c1cc(O)cc(O)c1C2=O` (stereo not drawn): the GI50 is > 100 µM (inactive) with A549; > 100 µM (inactive) in the experiment on CCRF-CEM; > 100 µM (inactive) in the experiment on DU-145; > 100 µM (inactive) in the experiment on EKVX; > 100 µM (inactive) with HCT-116; above 100 µM in the experiment on HCT-15. Moreover, the GI50 with HL-60, with HT-29, in the experiment on IGROV-1, in the experiment on K562, with MDA-MB-231 and in the experiment with Malme-3M was > 100 µM (inactive) each time. The GI50 in the experiment with NCI/ADR-RES, in the experiment with PC-3, with RPMI-8226, with SF-295, with SNB-19 and in the experiment with SNB-75 was > 100 µM (inactive) in each case. Also, in the experiment on U-251, the GI50 was > 100 µM (inactive).

As for `COc1ccc(/C=C/C(=O)N[C@@H]2C(=O)N3[C@@H]2SC(C)(C)[C@@H]3C(=O)O)cc1OC`, the GI50 with A549 is > 100 µM (inactive); with CCRF-CEM, > 100 µM (inactive); in the experiment with DU-145, > 100 µM (inactive); in the experiment with EKVX it was > 100 µM (inactive); in the experiment with HCT-116, > 100 µM (inactive); in the experiment on HCT-15, above 100 µM. For the same compound, the GI50 with HL-60, in the experiment on HT-29, with K562, in the experiment with MDA-MB-231, in the experiment on NCI/ADR-RES and in the experiment on PC-3 was > 100 µM (inactive) in each case. In addition, the GI50 in the experiment with RPMI-8226, in the experiment with SF-295, in the experiment with SK-MEL-2, with SNB-19, in the experiment with SNB-75 and with U-251 was > 100 µM (inactive) each time.
